Experimental data taken from the supplement of paper PMC11061612.

Columns and labels:
[1] = system: NCI-H1792 (Lung Adenocarcinoma); assay: combination Emax (second highest fraction inhibited in the dose matrix, 72 h); higher = more inhibition; extreme values may be limits of the assay
Method in brief: (§1)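 Cell lines grown in DMEM/F12 or RPMI with 10% FBS were plated in 1536-well plates and held 24 hours at 37°C, 5% CO2 before 72 hours of exposure to two-drug dose matrices, with DMSO typically at 0.2%. CellTiter-Glo 2.0 luminescence gave viability, which was converted to inhibition. Vehicle wells were set to 0 and blank wells to 1. Combination Emax is the second-highest inhibition in the matrix, and Bliss excess is the observed combination effect minus the expected EA + EB − EA·EB, where EA and EB are the single-agent effects.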

WM-115 (Melanoma) [2] = assay: as above
Method in brief: as §1

ES8 (Ewing's Sarcoma) [3] = assay: as above
Method in brief: as §1

[4] = system: K-562 (Chronic Myelogenous Leukemia); assay: as above
Method in brief: as §1

[5] = system: TE-6 (Esophageal Squamous Cell Carcinoma); assay: as above
Method in brief: as §1

[6] = system: SW837 (Colorectal Carcinoma); assay: as above
Method in brief: as §1

[7] = system: SW1417 (Colorectal Carcinoma); assay: as above
Method in brief: as §1

[8] = system: BL-41 (Burkitt's Lymphoma); assay: as above
Method in brief: as §1

WIL2-NS (Non-Cancerous) [9] = assay: as above
Method in brief: as §1

U251 (Low Grade Glioma) [10] = assay: as above
Method in brief: as §1

TC-71 (Ewing's Sarcoma) [11] = assay: as above
Method in brief: as §1

[12] = system: L-540 (Hodgkin's Lymphoma); assay: as above
Method in brief: as §1

[13] = system: BFTC-905 (Bladder Carcinoma); assay: as above
Method in brief: as §1

ES1 (Ewing's Sarcoma) [14] = assay: as above
Method in brief: as §1

[15] = system: DND-41 (T-Lymphoblastic Leukemia); assay: as above
Method in brief: as §1

[16] = system: MKN28 (Gastric Carcinoma); assay: as above
Method in brief: as §1

NCI-H2818 (Mesothelioma) [17] = assay: as above
Method in brief: as §1

[18] = system: GR-ST (B-Lymphoblastic Leukemia); assay: as above
Method in brief: as §1

[19] = system: CAMA-1 (Breast Carcinoma); assay: as above
Method in brief: as §1

[20] = system: SR (Other Blood Carcinomas); assay: as above
Method in brief: as §1

[21] = system: NCI-H1792 (Lung Adenocarcinoma); assay: Bliss excess, mean over the matrix (fraction); higher = more synergy
Method in brief: as §1

WM-115 (Melanoma) [22] = assay: as above
Method in brief: as §1

ES8 (Ewing's Sarcoma) [23] = assay: as above
Method in brief: as §1

[24] = system: K-562 (Chronic Myelogenous Leukemia); assay: as above
Method in brief: as §1

[25] = system: TE-6 (Esophageal Squamous Cell Carcinoma); assay: as above
Method in brief: as §1

[26] = system: SW837 (Colorectal Carcinoma); assay: as above
Method in brief: as §1

[27] = system: SW1417 (Colorectal Carcinoma); assay: as above
Method in brief: as §1

[28] = system: BL-41 (Burkitt's Lymphoma); assay: as above
Method in brief: as §1

WIL2-NS (Non-Cancerous) [29] = assay: as above
Method in brief: as §1

U251 (Low Grade Glioma) [30] = assay: as above
Method in brief: as §1

TC-71 (Ewing's Sarcoma) [31] = assay: as above
Method in brief: as §1

[32] = system: L-540 (Hodgkin's Lymphoma); assay: as above
Method in brief: as §1

[33] = system: BFTC-905 (Bladder Carcinoma); assay: as above
Method in brief: as §1

ES1 (Ewing's Sarcoma) [34] = assay: as above
Method in brief: as §1

[35] = system: DND-41 (T-Lymphoblastic Leukemia); assay: as above
Method in brief: as §1

[36] = system: MKN28 (Gastric Carcinoma); assay: as above
Method in brief: as §1

NCI-H2818 (Mesothelioma) [37] = assay: as above
Method in brief: as §1

[38] = system: GR-ST (B-Lymphoblastic Leukemia); assay: as above
Method in brief: as §1

[39] = system: CAMA-1 (Breast Carcinoma); assay: as above
Method in brief: as §1

[40] = system: SR (Other Blood Carcinomas); assay: as above
Method in brief: as §1
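Wherever Bliss excess, mean over the matrix is given: after 72 h of two-drug dosing.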

SMILES	combination Emax [1]	combination Emax (WM-115 (Melanoma) [2])	combination Emax (ES8 (Ewing's Sarcoma) [3])	combination Emax [4]	combination Emax [5]	combination Emax [6]	combination Emax [7]	combination Emax [8]	combination Emax (WIL2-NS (Non-Cancerous) [9])	combination Emax (U251 (Low Grade Glioma) [10])	combination Emax (TC-71 (Ewing's Sarcoma) [11])	combination Emax [12]	combination Emax [13]	combination Emax (ES1 (Ewing's Sarcoma) [14])	combination Emax [15]	combination Emax [16]	combination Emax (NCI-H2818 (Mesothelioma) [17])	combination Emax [18]	combination Emax [19]	combination Emax [20]	Bliss excess [21]	Bliss excess (WM-115 (Melanoma) [22])	Bliss excess (ES8 (Ewing's Sarcoma) [23])	Bliss excess [24]	Bliss excess [25]	Bliss excess [26]	Bliss excess [27]	Bliss excess [28]	Bliss excess (WIL2-NS (Non-Cancerous) [29])	Bliss excess (U251 (Low Grade Glioma) [30])	Bliss excess (TC-71 (Ewing's Sarcoma) [31])	Bliss excess [32]	Bliss excess [33]	Bliss excess (ES1 (Ewing's Sarcoma) [34])	Bliss excess [35]	Bliss excess [36]	Bliss excess (NCI-H2818 (Mesothelioma) [37])	Bliss excess [38]	Bliss excess [39]	Bliss excess [40]
CS(=O)(=O)CCNCc1ccc(-c2ccc3ncnc(Nc4ccc(OCc5cccc(F)c5)c(Cl)c4)c3c2)o1 [Lapatinib] + NC1(c2ccc(-c3nc4ccn5c(=O)[nH]nc5c4cc3-c3ccccc3)cc2)CCC1 [MK-2206] (first compound max 10 µM, 7x7, partner max 10 µM)	0.785	0.855	0.851	0.602	0.816	0.633	0.459	0.942	0.674	0.454	0.589	0.918	0.888	0.97	0.946	0.687	0.351	0.981	0.909	0.819	0.0243	-0.0093	-0.004	-0.0367	-0.0159	0.0106	0.0395	0.0176	0.0569	-0.0083	-0.0342	-0.0209	0.0323	0.0341	0.0377	-0.0445	-0.0155	-0.0298	0.0301	0.0147
N#Cc1cnc(Nc2cc(NC[C@H]3CNCCO3)c(C(F)(F)F)cn2)cn1 [SRA737] + O=c1[nH]cc(F)c(=O)[nH]1 [5-Fluorouracil] (first compound max 10 µM, 7x7, partner max 20 µM)	0.84	0.255	0.611	0.893		0.497	0.238	1	0.957			0.936	0.278	0.982	0.946	0.381	0.239	0.817	0.314	0.959	0.0523	-0.0753	0.0404	-0.0202		0.0162	0.0018	0.0042	0.0182			-0.0581	0.0197	0.0525	0.0434	0.0222	-0.0232	-0.0636	0.0209	-0.0128
C[C@@H](Nc1cc(F)cc(F)c1)c1cc(C(=O)N(C)C)cc2c(=O)cc(N3CCOCC3)oc12 [AZD8186] + CC(=O)c1c(C)c2cnc(Nc3ccc(N4CCNCC4)cn3)nc2n(C2CCCC2)c1=O [Palbociclib] (first compound max 10 µM, 7x7, partner max 10 µM)	0.577	0.58	0.676	0.196		0.213	0.395	0.245	0.771			0.267	0.55	0.722	0.504	0.227	0.389	0.725	0.738	0.839	0.0608	0.0109	0.0321	0.0479		-0.0454	0.0187	-0.0114	-0.0251			0.0275	0.0553	0.074	0.0875	-0.0287	0.044	0.0215	0.0447	0.0382
O=C(c1cc(Cc2n[nH]c(=O)c3ccccc23)ccc1F)N1CCN(C(=O)C2CC2)CC1 [Olaparib] + COc1nnc2ccc(N3CCC(c4ccc(OCCN5CCN(C)C(=O)[C@H]5C)cc4)CC3)nn12 [AZD5153] (first compound max 10 µM, 7x7, partner max 1 µM)	0.527	0.295	0.966	0.412		0.484	0.448	0.648	0.818			0.619	0.6	0.882	0.69	0.362	0.325	0.776	0.484	0.626	-0.0554	-0.135	0.0168	-0.0063		-0.0656	-0.0096	-0.0634	-0.0128			-0.0841	-0.0614	-0.0392	0.0275	-0.056	-0.0205	-0.0519	-0.0417	0.0315
O=C(c1cc(Cc2n[nH]c(=O)c3ccccc23)ccc1F)N1CCN(C(=O)C2CC2)CC1 [Olaparib] + CC1(C)CCC(CN2CCN(c3ccc(C(=O)NS(=O)(=O)c4ccc(NCC5CCOCC5)c([N+](=O)[O-])c4)c(Oc4cnc5[nH]ccc5c4)c3)CC2)=C(c2ccc(Cl)cc2)C1 [Venetoclax] (first compound max 10 µM, 7x7, partner max 1 µM)	0.109	0.241	0.964	0.172		0.112	0.124	0.318	0.46			0.558	0.193	0.841	0.29	0.105	0.158	0.526	0.211	0.567	-0.0302	-0.052	-0.0224	-0.0133		-0.0548	-0.0223	0.0183	0.0261			0.0188	-0.0334	0.0271	0.0243	-0.0514	-0.0238	-0.0349	-0.0106	0.0961
Cc1cc2ncnn2cc1Nc1ncc2c(n1)n(C1CCOCC1)c(=O)n2C [AZD7648] + COc1cc([C@@H]2c3cc4c(cc3[C@@H](O[C@@H]3O[C@@H]5CO[C@@H](C)O[C@H]5[C@H](O)[C@H]3O)[C@H]3COC(=O)[C@H]23)OCO4)cc(OC)c1O [Etoposide] (first compound max 10 µM, 7x7, partner max 10 µM)	0.708	0.481	0.994	0.872		0.358	0.382	0.998	0.981			0.903	0.903	1	0.967	0.56	0.617	0.703	0.463	1	0.0565	0.0071	0.165	0.114		0.0591	0.0288	0.0647	0.0553			0.108	0.152	0.109	0.115	0.0435	0.0361	0.0727	-0.012	0.193
